Reference: paper PMC6179248, “Peanut-specific T cell responses in patients with different clinical reactivity” (PLoS ONE, 2018)

Key:
[1] = system: PBMC from peanut allergic and non-allergic donors (IL-5 production); experiment: IL-5 ELISPOT with individual peptides after 14-day in vitro expansion (epitope mapping); format: cell-based, human; conditions: SFC per 10^6 PBMC, individual peptide 10 μg/ml, 24 h, after 14-day culture; for IL-5 Average SFC (allergics): allergic donors; for IL-5 Average SFC (controls): non-allergic controls
Experimental: (§1) For in vitro expansions, PBMCs were thawed and cultured in RPMI 1640 (Omega Scientific, Tarzana, CA) supplemented with 5% human AB serum (Gemini Bio-Products, West Sacramento, CA) at a density of 2 × 10^6 cells per mL in 24-well plates (Corning, San Diego, CA) and stimulated with peanut extract (10 μg/ml) or peptide pools at 5 μg/mL. Cells were kept at 37°C, 5% CO2, and additional IL-2 (10 U/mL; ThermoFisher, San Diego, CA) was added every 3 days after initial antigenic stimulation. On day 14, cells were harvested and reactivity against peanut extract (10 μg/ml), peanut specific peptide pools (5 μg/ml) and individual peptides (10 μg/ml) was assessed. The production of IL-5 and IFNγ post-stimulation with peanut extract was analyzed in dual ELISPOT assays. Flat-bottom 96-well nitrocellulose plates (Millipore, Bedford, MA) were prepared according to the manufacturer’s instructions and coated with either 10 μg/ml of both anti-human IL-5 (clone TRFK5) and anti-human IFNγ (clone 1-D1K) or anti-human IL-10 (clone 9D7) and anti-human IL-17 (clone MT44.6) (Mabtech, Cincinnati, OH). PBMC were then incubated at a density of 1 × 10^5/well either with peptide pools (5 μg/ml) or individual peptides (10 μg/ml), peanut extract (10 μg/ml), PHA (10 μg/ml), or medium containing 0.25% DMSO (corresponding to the highest percentage of DMSO in the pools/peptides condition) as a control. After 24 h, cells were removed, and plates were incubated with a cocktail containing either biotinylated anti-human IL-5 (1:50 dilution) (clone 5A10) and horseradish peroxidase (HRP)-conjugated anti-human IFNγ (1:200 dilution) (clone 7-B6-1) or biotinylated anti-human IL-17 (1:200 dilution) (clone MT504) anti-human alkaline phosphatase (AP)-conjugated IL-10 (1:200 dilution) (clone 12G8) (Mabtech, Cincinnati, OH) at 37°C. After 2 h, spots corresponding to the biotinylated IL-5 Ab were developed by incubation with Alkaline-phosphatase-Complex (Vector Laboratories, Burlingame, CA) and then visualized by applying the Vector Blue Alkaline Phosphatase Substrate Kit III (Vector Laboratories, Burlingame, CA) according to the manufacturer’s instructions. Spots corresponding to the HRP-conjugated anti-human IFNγ Ab were visualized by incubation with 3-amino-9-ethylcarvazole solution (Sigma-Aldrich, St. Louis, MO). Spots were counted by computer-assisted image analysis (KS-ELISPOT reader, Zeiss, Munich). Each assay was performed in triplicate. The level of statistical significance was determined with a Student t test using the mean of triplicate values of the response against relevant pools or individual peptides versus the response against the DMSO control. Criteria for response positivity were 20 spot-forming cells (SFCs)/10^6 PBMC, p ≤ 0.05, and a stimulation index (SI) ≥ 2. SFCs are measured per 10^5 PBMC, subsequently readings are background subtracted and multiplied by 10 to be expressed as SFC per million PBMC. T cell epitope mapping was performed to determine epitopes from the major peanut allergens Ara h 1, 2 and 3, recognized by peanut allergic (n = 11) and non-allergic (n = 10) donors. As these studies were performed with samples obtained from pediatric patients, available blood sample volumes were limiting. To overcome this limitation, small pools of predicted peptides matched to the HLA molecules expressed in each donor were tested. For each donor, class II binding affinity predictions were performed using algorithms available through the IEDB (www.iedb.org)[18], to identify the top 6 predicted binders for each of the alleles expressed at the four HLA class II loci (DRB1, DRB3/4/5, DQB1, and DPB1). Accordingly, the screening load for each donor was reduced from 400 peptides to a maximum of 48 peptides (6 peptides x ≤8 class II molecules, less for homozygous donors). The six top predicted peptides for each allele were used to generate allele-specific pools, which were in turn used to expand peanut-specific cells in vitro. […]

[2] = system: PBMC from peanut allergic and non-allergic donors (IFNγ production); experiment: IFNγ ELISPOT with individual peptides after 14-day in vitro expansion (epitope mapping); format: cell-based, human; conditions: SFC per 10^6 PBMC, individual peptide 10 μg/ml, 24 h, after 14-day culture; for IFNg Average SFC (allergics): allergic donors; for IFNg Average SFC (controls): non-allergic controls
Experimental: as §1

Sequence | IL-5 Average SFC (allergics) [1] | IL-5 Average SFC (controls) [1] | IFNg Average SFC (allergics) [2] | IFNg Average SFC (controls) [2]
LAGENSVIDNLPEEV [Ara h 3 15-mer, position 486; P19 pool member] | 306 SFC | 23 SFC | 0 SFC | 0 SFC
LILRWLGLSAEYGNL [Ara h 3 15-mer, position 391] | 53 SFC | 1880 SFC | 32 SFC | 0 SFC
LLGILVLASVSATHA [Ara h 1 15-mer, position 11] |  | 0 SFC |  | 80 SFC
LLGILVLASVSATQA [Ara h 1 15-mer, position 11] |  | 0 SFC |  | 145 SFC
LQDLDMMLTCVEIKE [Ara h 1 15-mer, position 426] | 0 SFC | 403 SFC | 0 SFC | 158 SFC
MAKLLALSLCFCVLV [Ara h 3 15-mer, position 1] | 0 SFC | 25 SFC | 0 SFC | 9 SFC
NELNLLILRWLGLSA [Ara h 3 15-mer, position 386] | 0 SFC | 607 SFC | 0 SFC | 0 SFC
NHRIVQIEARPNTLV [Ara h 1 15-mer, position 211] |  | 427 SFC |  | 303 SFC
NNRKSFNLDEGHALR [Ara h 1 15-mer, position 251] |  | 82 SFC |  | 55 SFC
NPINLREGEPDLSNN [Ara h 1 15-mer, position 396] |  | 457 SFC |  | 240 SFC
NTNAHSIIYALRGRA [Ara h 3 15-mer, position 416; P19 pool member] | 32 SFC | 163 SFC | 0 SFC | 77 SFC
PHFNSKAMVIVVINK [Ara h 1 15-mer, position 446] | 41 SFC | 0 SFC | 15 SFC | 58 SFC
PHFNSKAMVIVVVNK [Ara h 1 15-mer, position 446] | 113 SFC | 0 SFC | 0 SFC | 0 SFC
QAGENSIIDNLPEEV [Ara h 3 15-mer, position 461; P19 pool member] | 79 SFC | 33 SFC | 61 SFC | 0 SFC
QEFECAGVALSRLVL [Ara h 3 15-mer, position 61] |  | 138 SFC |  | 0 SFC
QEFLQHAFQVDRQTV [Ara h 3 15-mer, position 246] | 57 SFC | 2210 SFC | 0 SFC | 390 SFC
QEFLRYQQQQGSRPH [Ara h 3 15-mer, position 206] | 0 SFC | 144 SFC | 13 SFC | 61 SFC
QEFLRYQQQSRQSRR [Ara h 3 15-mer, position 206; P19 pool member] | 295 SFC | 47 SFC | 15 SFC | 72 SFC
QEFQCAGVALSRTVL [Ara h 3 15-mer, position 61] |  | 98 SFC |  | 34 SFC
QGRGYFGLIFPGCPS [Ara h 3 15-mer, position 96] | 0 SFC | 43 SFC | 0 SFC | 0 SFC
QRSKQFQNLQNHRIV [Ara h 1 15-mer, position 201; P19 pool member] | 0 SFC | 171 SFC | 0 SFC | 65 SFC
QRSRQFQNLQNHRIV [Ara h 1 15-mer, position 201] | 0 SFC | 216 SFC | 0 SFC | 102 SFC
QSDNFEYVAFKTDSR [Ara h 3 15-mer, position 466; P19 pool member] | 164 SFC | 123 SFC | 0 SFC | 373 SFC
QSENYEYLAFKTDSR [Ara h 3 15-mer, position 441] | 0 SFC | 419 SFC | 0 SFC | 95 SFC
RCTKLEYDPRCVYDT [Ara h 1 15-mer, position 61] | 195 SFC | 467 SFC | 0 SFC | 820 SFC
RLKEGDVFIMPAAHP [Ara h 1 15-mer, position 503] |  | 120 SFC |  | 83 SFC
RNNPFYFPSRRFSTR [Ara h 1 15-mer, position 171] | 100 SFC |  | 0 SFC | 
RRFYLAGNQEQEFLR [Ara h 3 15-mer, position 196] | 0 SFC | 750 SFC | 0 SFC | 90 SFC
RSSENNEGVIVEVSK [Ara h 1 15-mer, position 356] |  | 40 SFC |  | 0 SFC
